Measurements as given in US20090298811A1, “BENZIMIDAZOLONE DERIVATIVES” (Pfizer Inc, priority 2006, published 2009).

Columns and labels:
human CB1 receptor [1] = target: T1, human CB1 receptor (Homo sapiens, UniProt P21554); test: GTPγS binding on membranes of CHO cells expressing the human CB1 receptor; type: biochemical; set-up: expressed in transfected cells; host or cells: CHO cells (G418 selection); membranes; settings: CHO cell membranes, [35S] GTPγS
Procedure: Membrane preparation: CHO cells expressing the human CB1 receptor were grown to 80% confluence in Ham's F-12 Nutrient Medium (Invitrogen) containing 10% fetal bovine serum (Invitrogen), 1% pen/strep (Invitrogen), 1% Nonessential amino acids (Invitrogen) and 500 μg/ml G418 (Invitrogen). Cells were released from flasks using Cell Dissociation Buffer (Invitrogen). Cells were pelleted by centrifugation at 500×G for 5 minutes. Membranes were prepared by resuspending cells in ice cold Assay Buffer (25 mM Tris pH 7.4, 5 mM EDTA, 5 mM EGTA, Complete Protease Inhibitor (Roche)). Cells were lysed with 12 strokes of a dounce homogenizer. Unlysed cells were pelleted by centrifugation at 500×G for 5 minutes. Membranes were pelleted by centrifugation at 25,000×G for 30 minutes. Membranes were resuspended in TEE, dounced 12 strokes, and pelleted a second time at 25,000×G for 30 minutes. Membrane pellet was resuspended in 50 mM Tris pH 7.4, 100 mM NaCl, 3 mM MgCl2, 0.2 mM EGTA, Complete Protease Inhibitor (Roche). Protein concentration was determined using the Micro-BCA Protein Assay Kit (Pierce) using BSA as a standard. Membranes were frozen and stored at −80 degrees Celsius until use. GTPγS Binding: 40 μl of test compound was incubated with 20 μl of [^35S] GTPγS (Perkin Elmer) (1250 Ci/millimole) and 140 μl of membrane homogenate (5 ug/well) in polypropylene 96-well plates (Corning). Final reaction conditions were 50 mM Tris pH 7.4, 100 mM NaCl, 3 mM […], 0.2 mM EGTA, 0.04% BSA. After incubation at 37 degrees Celsius for 45 minutes reactions were harvested by vacuum filtration through Unifilter GF/B-96 filters (Perkin Elmer) using a FilterMate Plate Harvester (Perkin Elmer). Filters were rinsed 4 times with ice cold 50 mM Tris pH 7.4, 3 mM MgCl2, 0.2 mM EGTA and dried at 50 degrees Celsius for at least 30 minutes. 40 μl of Microscint-20 (Perkin Elmer) was added per well, and plates were counted using a Top-Count Microplate Scintillation Counter (Perkin Elmer). Binding data were analyzed and EC50 values were calculated using Graph Pad Prism 4.0 Software.

human CB1 receptor [2] = target: T1, human CB1 receptor; test: Human CB1 receptor binding, [3H] CP-55,940 displacement on HEK cell membranes; set-up: expressed in transfected cells; membranes; settings: [3H] CP-55,940 500 pM
Procedure: The Human CB1 receptor binding affinity and other biological activities of the compounds of this invention are determined by the following procedures.
Membrane preparation: Human Embryonic Kidney (HEK) Cells expressing the human CB1 receptor under transcriptional regulation of a tetracycline inducible promoter were grown in Dulbecco's Modified Essential Medium with sodium pyruvate (Invitrogen, Carlsbad, Calif.) containing 10% tetracycline free fetal bovine serum (Clonetech, Mountain View, Calif.) 100 μg/ml hygromycin (Calbiochem, San Diego, Calif.), 5 μg/ml blasticidin (Invitrogen). CB1 receptor expression was induced by addition of 1 μg/ml doxycycline (Calbiochem) and incubation for an additional 24 hours. Cells were released from flasks using Cell Dissociation Buffer (Invitrogen). Cells were pelleted by centrifugation at 500×G for 5 minutes. Membranes were prepared by resuspending cells in ice cold TEE Buffer (25 mM Tris pH 7.4, 5 mM EDTA, 5 mM EGTA, Complete Protease Inhibitor (Roche, Basel, Switzerland)). Cells were lysed with 12 strokes of a dounce homogenizer. Unlysed cells were pelleted by centrifugation at 500×G for 5 minutes. Membranes were pelleted by centrifugation at 25,000×G for 30 minutes. Membranes were resuspended in TEE, dounced 12 strokes, and pelleted a second time at 25,000×G for 30 minutes. Membrane pellet was resuspended in 50 mM Tris pH 7.4, 100 mM NaCl, 3 mM MgCl2, 0.2 mM EGTA, Complete Protease Inhibitor (Roche). Protein concentration was determined using the Micro-BCA Protein Assay Kit (Pierce, Rockford, Ill.) using BSA as a standard. Membranes were quick frozen and stored at −80 degrees Celsius until use. Binding experiments: 50 μl of test compound was incubated with 50 μl, of [^3H] CP-55,940 (Perkin Elmer, Boston, Mass.) (final concentration 500 pM) and 150 μl of membrane homogenate (1 μg/well) in polypropylene 96-well plates (Corning, Acton, Mass.). Final reaction conditions were 50 mM Tris pH 7.4, 100 mM NaCl, 3 mM MgCl2, 0.2 mM EGTA, 0.04% BSA. Nonspecific binding was determined by incubation with 50 μM WIN-55,212-2 (Tocris, Ellisville, Mo.). After incubation at room temperature for 60 minutes reactions were harvested by vacuum filtration through Unifilter GF/B-96 filters (Perkin Elmer) that had been presoaked in assay buffer containing 0.5% BSA (Sigma, St. Louis, Mo.) using a FilterMate Plate Harvester (Perkin Elmer). Filters were rinsed 4 times with 50 mM Tris pH 7.4, 0.025% Tween20 and dried at 50 degrees Celsius for at least 30 minutes. 40 μl of Microscint-20 (Perkin Elmer) was added per well, and plates were counted using a Top-Count Microplate Scintillation Counter (Perkin Elmer). Binding data were analyzed and EC50 and Ki values calculated using Graph Pad Prism 4.0 Software.

T1 sequence (P21554 whole entry): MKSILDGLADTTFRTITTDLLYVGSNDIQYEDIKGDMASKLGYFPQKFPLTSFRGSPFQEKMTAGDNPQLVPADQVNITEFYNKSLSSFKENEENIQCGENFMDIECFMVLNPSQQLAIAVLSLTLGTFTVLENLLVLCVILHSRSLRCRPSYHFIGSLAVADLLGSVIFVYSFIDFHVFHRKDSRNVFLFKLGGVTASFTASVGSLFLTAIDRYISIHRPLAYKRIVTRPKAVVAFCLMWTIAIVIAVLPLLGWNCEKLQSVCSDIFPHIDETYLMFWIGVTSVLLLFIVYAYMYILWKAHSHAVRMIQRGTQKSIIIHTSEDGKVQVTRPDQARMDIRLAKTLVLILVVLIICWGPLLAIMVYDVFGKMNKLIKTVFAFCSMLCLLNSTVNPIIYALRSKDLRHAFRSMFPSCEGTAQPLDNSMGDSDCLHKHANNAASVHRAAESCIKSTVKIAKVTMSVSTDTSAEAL

Compound	EC50 (human CB1 receptor [1])	Ki (human CB1 receptor [2])
CC(C)(C)[C@H](NC(=O)n1c(=O)n(CC2CC=C(F)CC2)c2ccccc21)C(N)=O (single isomer, unassigned) [Example 305]	1.74 nM	0.18 nM
CC(C)(C)[C@H](NC(=O)n1c(=O)n(CC2CCOCC2)c2ccccc21)C(N)=O [Example 132, N-[(1S)-1-(aminocarbonyl)-2,2-dimethylpropyl]-2-oxo-3-(tetrahydro-2H-pyran-4-ylmethyl)-2,3-dihydro-1H-benzimidazole-1-carboxamide]	12.7 nM	3.4 nM
CC(C)(C)[C@H](NC(=O)n1c(=O)n(CC2CCCCC2)c2ccc(F)cc21)C(N)=O [Example 165]	27.4 nM	0.82 nM
CC(C)(C)[C@H](NC(=O)n1c(=O)n(CC2CCCCC2)c2ccc(Cl)cc21)C(N)=O [Example 166]	31.5 nM	2.52 nM
Cc1ccc2c(c1)n(C(=O)N[C@H](C(N)=O)C(C)(C)C)c(=O)n2CC1CCCCC1 [Example 167]	44.9 nM	2.66 nM
CC(C)(C)[C@H](NC(=O)n1c(=O)n(CC2CCCCC2)c2cc(F)ccc21)C(N)=O [Example 169]	1 nM	0.28 nM
CC(C)(C)[C@H](NC(=O)n1c(=O)n(CC2CCCCC2)c2cc(Cl)ccc21)C(N)=O [Example 170]	1.86 nM	0.28 nM
CC(C)(C)[C@H](NC(=O)n1c(=O)n(CC2CCCCC2)c2c(F)cccc21)C(N)=O [Example 172]	7.8 nM	0.77 nM
CC(C)(C)[C@H](NC(=O)n1c(=O)n(CC2CCCCC2)c2c(Cl)cccc21)C(N)=O [Example 173]	2.5 nM	0.34 nM
Cc1cccc2c1n(CC1CCCCC1)c(=O)n2C(=O)N[C@H](C(N)=O)C(C)(C)C [Example 174]	8.3 nM	0.32 nM
CC(C)(C)[C@@H](CO)NC(=O)n1c(=O)n(CC2CCCCC2)c2ccccc21 [Example 176]	82.4 nM	2.22 nM
CCCCCn1c(=O)n(C(=O)N[C@H](CO)C(C)(C)C)c2ccccc21 [Example 178]	137 nM	8.45 nM
CN(C)CC(C)(C)CNC(=O)n1c(=O)n(CC2CCCCC2)c2ccccc21 [Example 182]	267 nM	17 nM
O=C(N[C@H]1c2ccccc2C[C@H]1O)n1c(=O)n(CC2CCCCC2)c2ccccc21 [Example 188]	87.7 nM	1.9 nM
O=C(N[C@H]1c2ccccc2C[C@H]1O)n1c(=O)n(CC2CCC2)c2ccccc21 [Example 189]	1020 nM	88.4 nM
CCCCCn1c(=O)n(C(=O)N[C@H]2c3ccccc3C[C@H]2O)c2ccccc21 [Example 190]	406 nM	8.09 nM
O=C(N[C@H]1CCCC[C@@H]1O)n1c(=O)n(CC2CCCCC2)c2ccccc21 [Example 191]	394 nM	10.5 nM
CCCCCn1c(=O)n(C(=O)N[C@H]2CCCC[C@@H]2O)c2ccccc21 [Example 193]	622 nM	67.4 nM
O=C(N[C@H]1CCCc2ccccc21)n1c(=O)n(CC2CCCCC2)c2ccccc21 [Example 197]	13.2 nM	0.78 nM
O=C(N[C@H]1CCCc2ccccc21)n1c(=O)n(CC2CCC2)c2ccccc21 [Example 198]	46.5 nM	5.79 nM
CCCCCn1c(=O)n(C(=O)N[C@H]2CCCc3ccccc32)c2ccccc21 [Example 199]	40.1 nM	0.9 nM

Compound	EC50 (human CB1 receptor [1])	Ki (human CB1 receptor [2])
CC(C)(C)[C@H](NC(=O)n1c(=O)n(CC2CCCCC2)c2ccccc21)C(N)=O [Example 200]	96.9 nM	0.52 nM
CC(C)(C)[C@H](NC(=O)n1c(=O)n(CC2CCC2)c2ccccc21)C(N)=O [Example 201]	45.3 nM	4.94 nM
CCCCCn1c(=O)n(C(=O)N[C@H](C(N)=O)C(C)(C)C)c2ccccc21 [Example 202]	20.1 nM	4.52 nM
CC(C)[C@H](NC(=O)n1c(=O)n(CC2CCCCC2)c2ccccc21)C(N)=O [Example 203]	74.1 nM	8.23 nM
CCCCCn1c(=O)n(C(=O)N[C@H](C(N)=O)C(C)C)c2ccccc21 [Example 205]	422 nM	69 nM
CC(C)(C)[C@H](NC(=O)n1c(=O)n(CCC2CCC2)c2ccccc21)C(N)=O [Example 217]	3.2 nM	1.28 nM
CC(C)(C)[C@H](NC(=O)n1c(=O)n(CCCCC#N)c2ccccc21)C(N)=O [Example 223]	1860 nM	102 nM
CC(C)(C)[C@H](NC(=O)n1c(=O)n(CC2CCCCO2)c2ccccc21)C(N)=O (stereo partly drawn) [Example 224]	176 nM	29.9 nM
CC(C)(C)[C@H](NC(=O)n1c(=O)n(CC2CCCCC2)c2ncccc21)C(N)=O [Example 226]	62.1 nM	5.34 nM
CC(C)(C)[C@H](NC(=O)n1c(=O)n(CCC(F)(F)F)c2ccccc21)C(N)=O [Example 227]	245 nM	10.2 nM
Cc1ccc2c(c1)n(CC1CCCCC1)c(=O)n2C(=O)NC1(C(N)=O)CCCCC1 [Example 266]	> 2850 nM	109 nM
Cc1ccc2c(c1)n(CC1CCCCC1)c(=O)n2C(=O)N[C@H](CC(C)C)C(N)=O [Example 267]	> 10000 nM	18.4 nM
Cc1ccc2c(c1)n(CC1CCCCC1)c(=O)n2C(=O)N[C@@H](Cc1ccccc1)C(N)=O [Example 268]	2580 nM	130 nM
Cc1ccc2c(c1)n(CC1CCCCC1)c(=O)n2C(=O)N[C@H](C(N)=O)C(C)C [Example 269]	24 nM	2.95 nM
CC(C)(C)[C@H](NC(=O)n1c(=O)n(CC2CCCCC2)c2cccc(F)c21)C(N)=O [Example 271]	6.53 nM	1.28 nM
CC(C)(C)[C@H](NC(=O)n1c(=O)n(CC2CCOCC2)c2cc(C#N)ccc21)C(N)=O [Example 272]	45.4 nM	58 nM
Cc1ccc2c(c1)n(CC1CCCCC1)c(=O)n2C(=O)N[C@H](C(N)=O)C1CCCCC1 [Example 273]	244 nM	57.5 nM
O=C(N[C@H]1CCCc2ccccc21)n1c(=O)n(CC2CCOCC2)c2ccccc21 [Example 276]	5.8 nM	0.374 nM
O=C(N[C@H]1c2ccccc2C[C@H]1O)n1c(=O)n(CC2CCOCC2)c2ccccc21 [Example 280]	136 nM	31 nM
CC(C)(C)[C@H](NC(=O)n1c(=O)n(CC2CCOCC2)c2cc(F)ccc21)C(N)=O [Example 290]	25.1 nM	19.2 nM
CCCCn1c(=O)n(C(=O)N[C@H](C(N)=O)C(C)(C)C)c2ccccc21 [Example 292]	75.1 nM	2.09 nM
